pIC50: −log10 of the molar value. Like-named read-outs stand apart in the source and are kept apart here.
Tests used:
[1] = molecular target: T1, recombinant N-terminal GST-tagged human Rho kinase 2 (ROCK2, amino acids 1-552) (Homo sapiens, UniProt O75116); assay: In vitro Rho kinase assay (luciferase-based ATP consumption), ROCK2; format: biochemical
T1 construct: ROCK2, amino acids 1-552; purchased Invitrogen Inc. PV3759
How it was run: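 Luciferase-based luminescence of leftover ATP after 2 h at 30 °C, where inhibition raises signal, reports activity of GST-tagged ROCK2 (aa 1-552) at 0.82 μg/ml. Conditions: S6 peptide 100 μg/ml, […], pH 7.5 Tris buffer. Results given as percent of H-1152P control activity.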

[2] = molecular target: T2, recombinant N-terminal GST-tagged human Rho kinase 1 (ROCK1, amino acids 1-535) (Homo sapiens, UniProt Q13464); assay: In vitro Rho kinase assay (luciferase-based ATP consumption), ROCK1; format: biochemical
T2 construct: ROCK1, amino acids 1-535; purchased Invitrogen Inc. PV-3691
How it was run: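 ATP depletion measured by firefly luciferase luminescence after 2 h at 30 °C, with inhibition raising signal and activity expressed relative to H-1152P. Reaction: 0.82 μg/ml recombinant GST-tagged ROCK1 (aa 1-535), S6 peptide 100 μg/ml, […], pH 7.5 Tris buffer.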

[3] = recombinant GST-tagged human ROCK2, luciferase-based ATP consumption, read-out: ROCK2 IC50
[4] = recombinant GST-tagged human ROCK1, luciferase-based ATP consumption, read-out: ROCK1 IC50

T1 sequence (O75116 1-552): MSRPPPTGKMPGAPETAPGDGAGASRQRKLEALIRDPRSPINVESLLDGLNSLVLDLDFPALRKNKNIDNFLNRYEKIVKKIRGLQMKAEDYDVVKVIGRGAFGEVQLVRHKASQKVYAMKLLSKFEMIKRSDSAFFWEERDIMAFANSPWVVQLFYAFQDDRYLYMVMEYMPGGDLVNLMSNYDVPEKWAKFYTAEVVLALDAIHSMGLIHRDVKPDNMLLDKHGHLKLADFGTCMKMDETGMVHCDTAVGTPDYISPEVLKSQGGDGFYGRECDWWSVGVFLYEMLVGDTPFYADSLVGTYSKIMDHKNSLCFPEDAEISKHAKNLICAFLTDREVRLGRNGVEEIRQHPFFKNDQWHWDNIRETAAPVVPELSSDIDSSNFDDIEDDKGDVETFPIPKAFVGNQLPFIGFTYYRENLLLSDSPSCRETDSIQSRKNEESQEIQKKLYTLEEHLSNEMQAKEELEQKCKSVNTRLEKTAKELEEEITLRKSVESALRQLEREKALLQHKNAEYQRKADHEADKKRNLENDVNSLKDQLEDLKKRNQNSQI
T2 sequence (Q13464 1-535): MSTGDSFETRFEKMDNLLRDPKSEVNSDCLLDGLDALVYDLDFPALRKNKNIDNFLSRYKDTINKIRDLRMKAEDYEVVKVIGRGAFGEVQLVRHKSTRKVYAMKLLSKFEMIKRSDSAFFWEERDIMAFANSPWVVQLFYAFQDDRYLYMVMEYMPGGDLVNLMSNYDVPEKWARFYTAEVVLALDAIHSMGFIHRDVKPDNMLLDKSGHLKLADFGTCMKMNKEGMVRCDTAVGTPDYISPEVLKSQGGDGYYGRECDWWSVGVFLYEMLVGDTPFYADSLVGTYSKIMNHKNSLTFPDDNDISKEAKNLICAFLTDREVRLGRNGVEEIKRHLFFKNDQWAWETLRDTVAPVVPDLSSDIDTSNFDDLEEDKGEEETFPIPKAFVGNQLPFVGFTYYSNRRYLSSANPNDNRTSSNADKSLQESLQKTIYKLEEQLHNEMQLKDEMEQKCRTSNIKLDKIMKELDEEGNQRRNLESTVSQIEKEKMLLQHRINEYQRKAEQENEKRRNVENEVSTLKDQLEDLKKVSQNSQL

Row | Compound | pIC50 [1, 3] | pIC50 [2, 4] | pIC50 ([1]; ROCK2 IC50, recombinant GST-tagged human ROCK2, luciferase-based ATP consumption) | pIC50 ([2]; ROCK1 IC50, recombinant GST-tagged human ROCK1, luciferase-based ATP consumption)
1 | COc1cc(C(=O)Nc2ccc3sc(-c4ccnc(N)n4)c(C)c3c2)cc(OC)c1OC [Example 73, N-(2-(2-Aminopyrimidin-4-yl)-3-methylbenzo[b]thiophen-5-yl)-3,4,5-trimethoxy benzamide] | < 5.30 | < 5.30 | – | –
2 | Cc1c(-c2ccnc(N)n2)sc2ccc(Nc3cccc(NC(=O)c4ccc(OCCN5CCOCC5)cc4)c3)cc12 [Example 59, N-(3-(2-(2-Aminopyrimidin-4-yl)-3-methylbenzo[b]thiophen-5-ylamino)phenyl)-4-(2-morpholinoethoxy)benzamide] | > 5.30 | > 5.30 | – | –
3 | Cc1c(-c2ccnc(N)n2)sc2ccc(CNC(=O)c3ccc(O)cc3O)cc12 [Example 144, Cc1c(sc2ccc(CNC(═O)c3ccc(O)cc3O)cc12)-c4ccnc(N)n4] | > 5.30 | < 5.30 | – | –
4 | CC(=O)NCC(=O)NCc1ccc2sc(-c3ccnc(N)n3)c(C)c2c1 [Example 107, CC(═O)NCC(═O)NCc1ccc2sc(c(C)c2c1)-c3ccnc(N)n3] | > 5.30 | < 5.30 | – | –
5 | COc1ccc(C(=O)NCc2ccc3sc(-c4ccnc(N)n4)c(C)c3c2)c(OC)c1OC [Example 280, COc1ccc(C(═O)NCc2ccc3sc(c(C)c3c2)-c4ccnc(N)n4)c(OC)c1OC] | > 5.30 | < 5.30 | – | –
6 | Cc1cc(C)cc(C(=O)NCc2ccc3sc(-c4ccnc(N)n4)c(C)c3c2)c1 [Example 135, Cc1cc(C)cc(c1)C(═O)NCc2ccc3sc(c(C)c3c2)-c4ccnc(N)n4] | < 5.30 | < 5.30 | – | –
7 | Cc1c(-c2ccnc(N)n2)sc2ccc(CNC(=O)c3ccc(C(F)(F)F)cc3[N+](=O)[O-])cc12 [Example 313, Cc1c(sc2ccc(CNC(═O)c3ccc(cc3[N+]([O−])═O)C(F)(F)F)cc12)-c4ccnc(N)n4] | > 5.30 | > 5.30 | – | –
8 | Cc1c(-c2ccnc(N)n2)sc2ccc(Nc3ccncc3)cc12 [Example 66, 4-(3-Methyl-5-(pyridin-4-ylamino)benzo[b]thiophen-2-yl)pyrimidin-2-amine] | > 5.30 | > 5.30 | – | –
9 | COc1ccc(Br)c(C(=O)NCc2ccc3sc(-c4ccnc(N)n4)c(C)c3c2)c1 [Example 310, COc1ccc(Br)c(c1)C(═O)NCc2ccc3sc(c(C)c3c2)-c4ccnc(N)n4] | > 5.30 | < 5.30 | – | –
10 | Cc1c(-c2ccnc(N)n2)sc2ccc(CNC(=O)c3cc(F)c(F)cc3[N+](=O)[O-])cc12 [Example 272, Cc1c(sc2ccc(CNC(═O)c3cc(F)c(F)cc3[N+]([O−])═O)cc12)-c4ccnc(N)n4] | > 5.30 | < 5.30 | – | –
11 | Cc1c(-c2ccnc(N)n2)sc2ccc(CNC(=O)Cc3ccccc3O)cc12 [Example 35, N-((2-(2-Aminopyrimidin-4-yl)-3-methylbenzo[b]thiophen-5-yl)methyl)-2-(2-hydroxyphenyl)acetamide] | > 5.30 | > 5.30 | – | –
12 | COc1cc(C=CC(=O)NCc2ccc3sc(-c4ccnc(N)n4)c(C)c3c2)ccc1O [Example 255, COc1cc(C═CC(═O)NCc2ccc3sc(c(C)c3c2)-c4ccnc(N)n4)ccc1O] | > 5.30 | > 5.30 | – | –
13 | Cc1c(-c2ccnc(N)n2)sc2ccc(C(=O)N3CCC(N)C3)cc12 (stereo not shown) [Example 23, (2-(2-Aminopyrimidin-4-yl)-3-methylbenzo[b]thiophen-5-yl)(3-aminopyrrolidin-1-yl)methanone] | > 5.30 | > 5.30 | – | –
14 | Cc1c(-c2ccnc(N)n2)sc2ccc(CNC(=O)c3ccc(Oc4ccccc4)cc3)cc12 [Example 284, Cc1c(sc2ccc(CNC(═O)c3ccc(Oc4ccccc4)cc3)cc12)-c5ccnc(N)n5] | > 5.30 | < 5.30 | – | –
15 | Cc1c(-c2ccnc(N)n2)sc2ccc(Nc3cccc(OC(F)(F)F)c3)cc12 [Example 54, 4-(3-Methyl-5-(3-(trifluoromethoxy)phenylamino)benzo[b]thiophen-2-yl)pyrimidin-2-amine] | < 5.30 | < 5.30 | – | –
16 | Cc1ccc(F)cc1C(=O)NCc1ccc2sc(-c3ccnc(N)n3)c(C)c2c1 [Example 146, Cc1ccc(F)cc1C(═O)NCc2ccc3sc(c(C)c3c2)-c4ccnc(N)n4] | > 5.30 | < 5.30 | – | –
17 | Nc1nccc(-c2cc3ccccc3s2)n1 [Example 2, 4-(Benzo[b]thiophen-2-yl)pyrimidin-2-amine] | > 5.30 | > 5.30 | – | –
18 | CCOc1ccc2ccccc2c1C(=O)NCc1ccc2sc(-c3ccnc(N)n3)c(C)c2c1 [Example 291, CCOc1ccc2ccccc2c1C(═O)NCc3ccc4sc(c(C)c4c3)-c5ccnc(N)n5] | > 5.30 | < 5.30 | – | –
19 | COc1cc(C(=O)NCc2ccc3sc(-c4ccnc(N)n4)c(C)c3c2)cc(Cl)n1 [Example 235, COc1cc(cc(Cl)n1)C(═O)NCc2ccc3sc(c(C)c3c2)-c4ccnc(N)n4] | > 5.30 | > 5.30 | – | –

Row | Compound | pIC50 [1, 3] | pIC50 [2, 4] | pIC50 ([1]; ROCK2 IC50, recombinant GST-tagged human ROCK2, luciferase-based ATP consumption) | pIC50 ([2]; ROCK1 IC50, recombinant GST-tagged human ROCK1, luciferase-based ATP consumption)
20 | Cc1c(-c2ccnc(N)n2)sc2ccc(Cc3cccc(OCCN4CCOCC4)c3)cc12 [Example 29, 4-(3-Methyl-5-(3-(2-morpholinoethoxy)benzyl)benzo[b]thiophen-2-yl)pyrimidin-2-amine] | > 5.30 | > 5.30 | – | –
21 | Cc1c(-c2ccnc(N)n2)sc2ccc(CNC(=O)C3CCCN3C(=O)OC(C)(C)C)cc12 (stereo not shown) [Example 289, Cc1c(sc2ccc(CNC(═O)[C]3CCCN3C(═O)OC(C)(C)C)cc12)-c4ccnc(N)n4] | < 5.30 | > 5.30 | – | –
22 | Cc1c(-c2ccnc(N)n2)sc2ccc(CNC(=O)c3ccc(C=O)cc3)cc12 [Example 130, Cc1c(sc2ccc(CNC(═O)c3ccc(C═O)cc3)cc12)-c4ccnc(N)n4] | > 5.30 | > 5.30 | – | –
23 | Cc1c(-c2ccnc(N)n2)sc2ccc(CNC(=O)c3cnc(O)c(Cl)c3)cc12 [Example 193, Cc1c(sc2ccc(CNC(═O)c3cnc(O)c(Cl)c3)cc12)-c4ccnc(N)n4] | < 5.30 | > 5.30 | – | –
24 | CC(=O)Oc1ccccc1C(=O)NCc1ccc2sc(-c3ccnc(N)n3)c(C)c2c1 [Example 211, CC(═O)Oc1ccccc1C(═O)NCc2ccc3sc(c(C)c3c2)-c4ccnc(N)n4] | > 5.30 | > 5.30 | – | –
25 | COc1cc(OC)cc(C(=O)NCc2ccc3sc(-c4ccnc(N)n4)c(C)c3c2)c1 [Example 221, COc1cc(OC)cc(c1)C(═O)NCc2ccc3sc(c(C)c3c2)-c4ccnc(N)n4] | > 5.30 | < 5.30 | – | –
26 | Cc1c(-c2cc(N)nc(N)n2)sc2ccc(Cl)cc12 [Example 9, 6-(5-Chloro-3-methylbenzo[b]thiophen-2-yl)pyrimidine-2,4-diamine] | < 5.30 | < 5.30 | – | –
27 | Cc1c(-c2ccnc(N)n2)sc2ccc(CNC(=O)c3ccc(F)cc3Cl)cc12 [Example 194, Cc1c(sc2ccc(CNC(═O)c3ccc(F)cc3Cl)cc12)-c4ccnc(N)n4] | – | – | > 5.30 | < 5.30
28 | Cc1c(-c2ccnc(N)n2)sc2ccc(CNC(=O)C3CCc4ccccc4C3)cc12 (stereo not shown) [Example 199, Cc1c(sc2ccc(CNC(═O)C3CCc4ccccc4C3)cc12)-c5ccnc(N)n5] | > 5.30 | < 5.30 | – | –
29 | COc1ccc(Cc2ccc3sc(-c4ccnc(N)n4)c(C)c3c2)cc1 [Example 25, 4-(5-(4-Methoxybenzyl)-3-methylbenzo[b]thiophen-2-yl)pyrimidin-2-amine] | < 5.30 | < 5.30 | – | –
30 | Cc1ccc(C)c(C(=O)NCc2ccc3sc(-c4ccnc(N)n4)c(C)c3c2)c1 [Example 134, Cc1ccc(C)c(c1)C(═O)NCc2ccc3sc(c(C)c3c2)-c4ccnc(N)n4] | > 5.30 | > 5.30 | – | –
31 | Cc1c(-c2ccncc2)sc2ccc(Cl)cc12 [Example 4, 4-(5-Chloro-3-methylbenzo[b]thiophen-2-yl)pyridine] | < 5.30 | < 5.30 | – | –
32 | Cc1c(-c2ccc3[nH]ncc3c2)sc2ccc(Cl)cc12 [Example 10, 5-(5-Chloro-3-methylbenzo[b]thiophen-2-yl)-1H-indazole] | > 5.30 | > 5.30 | – | –
33 | Cc1c(-c2ccnc(N)n2)sc2ccc(CNC(=O)c3cc(O)ccc3[N+](=O)[O-])cc12 [Example 227, Cc1c(sc2ccc(CNC(═O)c3cc(O)ccc3[N+]([O−])═O)cc12)-c4ccnc(N)n4] | > 5.30 | < 5.30 | – | –
34 | Cc1c(-c2ccnc(N)n2)sc2ccc(CNC(=O)C(C)O)cc12 (stereo not shown) [Example 98, C[C](O)C(═O)NCc1ccc2sc(c(C)c2c1)-c3ccnc(N)n3] | > 5.30 | < 5.30 | – | –
35 | Cc1c(-c2ccnc(N)n2)sc2ccc(CNC(=O)c3cc([N+](=O)[O-])ccc3O)cc12 [Example 228, Cc1c(sc2ccc(CNC(═O)c3cc(ccc3O)[N+]([O−])═O)cc12)-c4ccnc(N)n4] | > 5.30 | < 5.30 | – | –
36 | Cc1c(-c2ccnc(N)n2)sc2ccc(CNC(=O)C3CCCCC3)cc12 [Example 115, Cc1c(sc2ccc(CNC(═O)C3CCCCC3)cc12)-c4ccnc(N)n4] | > 5.30 | < 5.30 | – | –
37 | Cc1c(-c2ccnc(N)n2)sc2ccc(CNC(=O)c3ccccc3Cc3ccccc3)cc12 [Example 281, Cc1c(sc2ccc(CNC(═O)c3ccccc3Cc4ccccc4)cc12)-c5ccnc(N)n5] | > 5.30 | < 5.30 | – | –
38 | Cc1c(-c2ccnc(N)n2)sc2ccc(CNC(=O)c3cccc(I)c3)cc12 [Example 320, Cc1c(sc2ccc(CNC(═O)c3cccc(I)c3)cc12)-c4ccnc(N)n4] | > 5.30 | < 5.30 | – | –
